What was measured:
[1] = tested on: human prostate cancer cells; test: Cell viability/proliferation of human prostate cancer cells vs various anti-cancer agents (FIG. 9); type: cell-based
Source text: The anti-cancer compositions described herein can be used to treat any cancer having increased glycolysis; the metabolic phenotype referred to as the “Warburg Effect”, as described above. In another embodiment, the anti-cancer compositions can be used to treat any cancer that can be detected by Positron Emission Tomography (PET), which detects this metabolic phenotype. For example, FIG. 5 illustrates a reaction scheme for PET scanning. Human cancer cell lines that the present anti-cancer composition has shown to be effective against include liver, cervical, ovarian, lung, breast, colon, neuroblastoma, medulloblastoma, prostate, skin, pancreatic, childhood fibrolamellar hepatocellular carcinoma (FHCC), hepatocellular carcinoma (HCC), non small cell lung cancer. For example, FIG. 9 depicts a bar graph showing various cancer drugs effects on human prostate cancer cells. […] As such, the present cancers that can be treated with the present anti-cancer compositions can be selected from the group consisting of liver, cervical, ovarian, lung, breast, colon, neuroblastoma, medulloblastoma, prostate, skin, pancreatic, childhood fibrolamellar hepatocellular carcinoma (FHCC), hepatocellular carcinoma (HCC), non small cell lung cancer. […]

[2] = tested on: Hepatocellular carcinoma cells; test: Rat hepatocellular carcinoma study: cancer cell viability vs μM of anti-cancer agents (FIG. 3); conditions: 23 hour period; 3-bromopyruvate with as little as 20 μM
liver cancer cells = test: Photographs of liver cancer cells treated with 3BP (FIG. 2); type: cell-based
Source text: The presently disclosed cellular energy inhibitors, shown as 3-bromopyruvate (3BP) (a lactic acid analog) in FIG. 1, are small chemicals and can mimic the lactic acid chemical structure; depicted as a small diamond in FIG. 1. Therefore, cellular energy inhibitors disguised as lactic acid can “trick” the cancer cells and enter like a Trojan horse (FIG. 1). The inhibitors have little effect on normal cells as these contain very few lactic acid transporters. Because of the present cellular energy inhibitors' highly reactive nature, it can destroy the two energy production factories (FIG. 1; one diamond above the hexokinase (HK), shown as 3BP is destroying one energy production factory, i.e., glycolysis, and another red diamond inside the mitochondrion means that 3BP is destroying also this energy production factory). As a result, the cellular energy (ATP) can be depleted very rapidly by cellular energy inhibitors; 3BP in FIG. 1, attack the two factories at the same time causing the cancer cells to rapidly explode (cell membrane rupturing). […] Here, the healthy cancer cells are round and iridescent (left picture).

metastatic lung tumors = test: Metastatic lung cancer study in rabbits, IP port delivery (FIG. 4); conditions: dissected lungs

## O=C(O)C(=O)CBr [3-Bromopyruvate, 3-bromopyruvate]
[1]
  stopping cancer cell proliferation vs other known chemo-agents: better than other known chemo-agents in stopping cancer cell proliferation
[2]
  cell viability: approx. 5%
Liver cancer cells
  cell morphology / death after treatment: the cell membranes rupture
Metastatic lung tumors
  metastatic lung cancer after treatment: no metastatic lung cancer
